Assay results from patent US20200129492A1, “TREATMENT OF CANCER WITH DIHYDROPYRIDINES” (MENRI GROUP LTD., priority 2017, published 2020).
Read-outs that look alike come from different tables or passages of the source. Each block holds one molecule with its values, some of them ahead of it.

How the values were obtained:
Assay type in all cases: cell-based
[1] = tested on: NSCLC A549 lung cancer cells; experiment: XTT assay, cell proliferation after 72 hours incubation, IC50
Description: (§1) Example 10 (see also FIG. 10) is a study to determine the effect of the combination of calcium blockers on the proliferation of cancer cells. NSCLC A549 lung cancer cells were incubated with various concentrations of a combination of calcium blockers ranging from 1 μM to 50 μM. […] An XTT assay was then performed. The cell proliferation was then calculated. Results are representative of at least three independent experiments. IC50 was calculated from the % inhibition data.

[2] = tested on: NSCLC A549 lung cancer cells; experiment: XTT assay, cell proliferation after 24 hours incubation
Description: Example 6 was a study to determine the effect of treatment with nitrendipine and the dihydropyridine of Formula IV above on the proliferation of cancer cells. NSCLC A549 lung cancer cells were incubated with various concentrations of nitrendipine and the dihydropyridine of Formula IV ranging from 1 μM to 100 μM. 5000 cells were plated in RPMI medium per well and incubated with either the individual drugs for 24 hours. An XTT assay was then performed. The cell proliferation was then calculated. FIG. 6 is a graphical representation of the results.
as §1, with “8 was” for “10 (see also FIG. 10) is”, “μM. In this specific example, the combination of loperamide and the dihydropyridine, nitrendipine, was used.” for “μM.”, “FIG. 8 is a graphical representation of” for “IC50 was calculated from”, “results.” for “% inhibition data.”
as §1, with “9” for “10 (see also FIG. 10)”, “μM. In this specific example, the combination of loperamide and the dihydropyridine, nicardipine, was used.” for “μM.”, “FIG. 9 is a graphical representation of” for “IC50 was calculated from”, “results.” for “% inhibition data.”

A549 lung cancer cells [3] = experiment: Intracellular free calcium, Fura-2-AM fluorescence measurement
Description: The intracellular free calcium measurement was done using Fura-2-AM fluorescence measurement. […] Ionomycin was used as the positive control for stimulation of calcium entry. Calcium was removed from the medium at the end of each experiment via addition of EGTA or replacement of the medium with calcium free medium. The calculation of the absolute calcium concentration was performed using a standard calcium curve. An average of 15 cells is shown.
The intracellular free calcium measurement was done using Fura-2-AM fluorescence measurement. […] The calculation of the absolute calcium concentration was performed using a standard calcium curve. An average of 15 cells is shown.
The intracellular free calcium measurement was done using Fura-2-AM fluorescence measurement. […] Ionomycin was used as the positive control for stimulation of calcium entry.

A549 lung cancer cells [4] = experiment: XTT assay, cell proliferation 48 hours after addition; conditions: increasing concentrations
Description: An XTT assay was performed 48 hours after the addition of nitrendipine at increasing concentrations. The cell proliferation was then calculated. Results are representative of at least three independent experiments. The results are illustrated in FIG. 1B. […] Without limitation by theory, it is theorized that nitrendipine lethally flooded the cells with calcium at the noted concentrations.
(§2) An XTT assay was performed 48 hours after the addition of nicardipine at increasing concentrations. The cell proliferation was then calculated. Results are representative of at least three independent experiments. The results are illustrated in FIG. 2B. […] Without limitation by theory, it is theorized that the nicardipine-initiated block of the entry of extracellular free calcium inhibits the cell's ability to undergo or successfully finish cytokinesis, and this may lead to cell death.
as §2, with “nisoldipine” for “nicardipine”, “4B.” for “2B.”, “nisoldipine-initiated” for “nicardipine-initiated”, “cytokinesis” for “cytokinesis,”
as §2, with “The” for “An XTT assay was performed 48 hours after the addition of nicardipine at increasing concentrations. The”, “7B.” for “2B.”, “loperamide-initiated” for “nicardipine-initiated”

[5] = Homo sapiens, A549, compound alone plus DMSO, 72 hours, read-out: Plus DMSO (Control), IC-50
[6] = read-out: Plus Loperamide, IC-50, in combination with loperamide (5 uM per FIG. 10), 72 hours
[7] = compound alone plus DMSO, 72 hours

IC50 [1, 5]: 7.7 µM
IC50 [1, 6]: 3.95 µM
SMILES: COC(=O)C1=C(C)NC(C)=C(C(=O)OC(C)(C)CN(C)CCC(c2ccccc2)c2ccccc2)C1c1cccc([N+](=O)[O-])c1 (racemic) [Lercanidipine]

IC50 [1, 5]: 8.5 µM
IC50 [1, 6]: 4.8 µM
SMILES: CC1=C(C(=O)OC(C)C)C(c2cccc([N+](=O)[O-])c2)C(C(=O)OC2CN(C(c3ccccc3)c3ccccc3)C2)=C(N)N1 (centres unmarked) [Azelnidipine]

IC50 [1, 5]: 18 µM
SMILES: COC(=O)C1=C(C)NC(C)=C(C(=O)OC2CCCN(Cc3ccccc3)C2)C1c1cccc([N+](=O)[O-])c1 (centres unmarked) [Benidipine]

IC50 [1, 5]: 10.2 µM
SMILES: CC1=C(C(=O)OCCN(Cc2ccccc2)c2ccccc2)C(c2cccc([N+](=O)[O-])c2)C(P2(=O)OCC(C)(C)CO2)=C(C)N1 (centres unmarked) [Efonidipine]

IC50 [1, 5]: 26 µM
SMILES: CCOC(=O)C1=C(C)NC(C)=C(C(=O)OC)C1c1cccc(Cl)c1Cl (centres unmarked) [Felodipine]

IC50 [1, 5]: 26 µM
SMILES: COC(=O)C1=C(C)NC(C)=C(C(=O)OC(C)C)C1c1cccc2nonc12 (centres unmarked) [Isradipine]

IC50 [1, 5]: 8.2 µM
SMILES: COC(=O)C1=C(C)NC(C)=C(C(=O)OCCN2CCN(C(c3ccccc3)c3ccccc3)CC2)C1c1cccc([N+](=O)[O-])c1 (centres unmarked) [Manidipine]

IC50 [1, 5]: 13.7 µM
IC50 [1, 6]: 6.7 µM
SMILES: COC(=O)C1=C(C)NC(C)=C(C(=O)OCCN(C)Cc2ccccc2)C1c1cccc([N+](=O)[O-])c1 (centres unmarked) [Nicardipine, 2-[benzyl(methyl)amino]ethylmethyl-2,6-dimethyl-4-(3-nitrophenyl)-1,4-dihydropyridine-3,5-dicarboxylate]
Avg. % proliferation ([2]; Example 9, 1 μM): 99.90%
Avg. % proliferation ([2]; Example 9, 5 μM): 100.23%
Avg. % proliferation ([2]; Example 9, 10 μM): 86.20%
Avg. % proliferation ([2]; Example 9, 50 μM): 32.97%

IC50 ([1]; Homo sapiens, A549, 72 h, read-out: Plus DMSO (Control), IC-50): 5.37 µM
IC50 ([1]; read-out: Plus Loperamide, IC-50): 3.12 µM
SMILES: COC(=O)C1=C(C)NC(C)=C(C(=O)OCCCN2CCC(c3ccccc3)(c3ccccc3)CC2)[C@H]1c1cccc([N+](=O)[O-])c1 [Niguldipine]

IC50 [1, 5]: 17.6 µM
SMILES: COC(=O)C1=C(C#N)NC(C)=C(C(=O)OC(C)C)C1c1cccc([N+](=O)[O-])c1 (centres unmarked) [Nilvadipine]

The next lines start with the molecule.

SMILES: CCOC(=O)C1=C(C)NC(C)=C(C(=O)OC)C1c1cccc([N+](=O)[O-])c1 (racemic) [Nitrendipine, (RS)-3-Ethyl 5-methyl 2,6-dimethyl-4-(m-nitrophenyl)-1,4-dihydropyridine-3,5-dicarboxylate]
Avg. % proliferation ([2]; Example 6, 1 μM): 86.24%
Avg. % proliferation ([2]; Example 6, 5 μM): 87.19%
Avg. % proliferation ([2]; Example 6, 10 μM): 75.97%
Avg. % proliferation ([2]; Example 6, 50 μM): 52.21%
Avg. % proliferation ([2]; Example 6, 100 μM): 24.42%
Avg. % proliferation ([2]; Example 8, 1 μM): 102.33%
Avg. % proliferation ([2]; Example 8, 5 μM): 93.35%
Avg. % proliferation ([2]; Example 8, 10 μM): 102.58%
Avg. % proliferation ([2]; Example 8, 50 μM): 71.43%
effect on intracellular free calcium (A549 lung cancer cells [3]; 1 μM and 5 μM treatments): functions as an agonist for the entry of extracellular calcium
concentration of intracellular calcium versus positive control (ionomycin) (A549 lung cancer cells [3]; 5 μM treatment): greater than that of the positive control
effect on intracellular free calcium (A549 lung cancer cells [3]; consecutive treatments with nitrendipine and nicardipine, 20 μM each): floods the cells with calcium
percentage of cell growth (A549 lung cancer cells [4]): decreases as the concentration of nitrendipine is increased

SMILES: CCOC(=O)C1=C(COCCN)NC(C)=C(C(=O)OC)C1c1ccccc1Cl (centres unmarked) [Amlodipine]
IC50 [1, 5]: 22 µM

SMILES: CCCC(=O)OCOC(=O)C1=C(C)NC(C)=C(C(=O)OC)C1c1cccc(Cl)c1Cl (centres unmarked) [Clevidipine]
IC50 [1, 5]: 23 µM

SMILES: COCCOC(=O)C1=C(C)NC(C)=C(C(=O)OC/C=C/c2ccccc2)C1c1cccc([N+](=O)[O-])c1 (centres unmarked) [Clinidipine]
IC50 ([1]; read-out: Plus DMSO (Control), IC-50): 41 µM

SMILES: COc1ccc([C@@H]2Sc3ccccc3N(CCN(C)C)C(=O)[C@@H]2OC(C)=O)cc1 [Diltiazem]
Plus DMSO (Control), IC-50 [1, 7]: No Activity

SMILES: CCOC(=O)C1=C(C)NC(C)=C(C(=O)OC)C1c1ccccc1 (centres unmarked) [Formula IV, 5-O-ethyl 3-O-methyl 2,6-dimethyl-4-phenyl-1,4-dihydropyridine-3,5-dicarboxylate]
Avg. % proliferation ([2]; Example 6, 5 μM): 96.4%
Avg. % proliferation ([2]; Example 6, 10 μM): 104.2%
Avg. % proliferation ([2]; Example 6, 50 μM): 79.06%
Avg. % proliferation ([2]; Example 6, 100 μM): 67.8%
effect on intracellular free calcium (A549 lung cancer cells [3]; 5 μM and 50 μM treatments): blocks the influx of extracellular calcium

SMILES: CCOC(=O)C1=C(C)NC(C)=C(C(=O)OCC)C1c1ccccc1/C=C/C(=O)OC(C)(C)C [Lacidipine]
IC50 [1, 5]: 16 µM

SMILES: CN(C)C(=O)C(CCN1CCC(O)(c2ccc(Cl)cc2)CC1)(c1ccccc1)c1ccccc1 [Loperamide, 4-[4-(4-Chlorophenyl)-4-hydroxypiperidin-1-yl]-N,N-dimethyl-2,2-diphenylbutanamide]
Avg. % proliferation ([2]; Example 8, 1 μM): 98.07%
Avg. % proliferation ([2]; Example 8, 5 μM): 99.77%
Avg. % proliferation ([2]; Example 8, 10 μM): 96.09%
Avg. % proliferation ([2]; Example 8, 50 μM): 34.04%
Avg. % proliferation ([2]; Example 9, 1 μM): 92.73%
Avg. % proliferation ([2]; Example 9, 5 μM): 86.97%
Avg. % proliferation ([2]; Example 9, 10 μM): 90.33%
Avg. % proliferation ([2]; Example 9, 50 μM): 32.03%
effect on intracellular free calcium (A549 lung cancer cells [3]; 5 μM and 50 μM treatments): blocks the influx of extracellular calcium
percentage of cell growth (A549 lung cancer cells [4]): decreases as the concentration of loperamide is increased

SMILES: COC(=O)C1=C(C)NC(C)=C(C(=O)OC)C1c1ccccc1[N+](=O)[O-] [Nifedipine]
Plus DMSO (Control), IC-50 [1, 7]: No Activity

SMILES: COCCOC(=O)C1=C(C)NC(C)=C(C(=O)OC(C)C)C1c1cccc([N+](=O)[O-])c1 (centres unmarked) [Nimodipine]
Plus DMSO (Control), IC-50 [1, 7]: No Activity

SMILES: COc1ccc(CCN(C)CCCC(C#N)(c2ccc(OC)c(OC)c2)C(C)C)cc1OC (centres unmarked) [Verapamil]
Plus DMSO (Control), IC-50 [1]: No Activity

SMILES: COC(=O)C1=C(C)NC(C)=C(C(=O)OCC(C)C)C1c1ccccc1[N+](=O)[O-] (centres unmarked) [nisoldipine, isobutyl methyl 2,6-dimethyl4-(2-nitrophenyl)-1,4-dihydropyridine-3,5-dicarboxylate]
effect on intracellular free calcium (A549 lung cancer cells [3]; 5 μM and 10 μM treatments): blocks the influx of extracellular calcium
percentage of cell growth (A549 lung cancer cells [4]): decreases as the concentration of nisoldipine is increased
